Measurements as given in US8658699B2, “Chemical permeation enhancers enhance nerve blockade by toxins” (priority 2008, dated 2014).
Values joined by “and” are separate entries in the source; they are usually repeats but may differ in a detail not shown here. Identical values can stand only once. Like-named read-outs stand apart in the source and are kept apart here.

Assays:
sciatic nerve [1] = details: 0.1-0.3 mL of 0.25%-0.5% (8.7-17 mM) bupivacaine (Kohane 1998, 1999); cited from earlier work
sciatic nerve [2] = details: for % Animals with Effective Block / Duration of Sensory Block: Bupivacaine 1.4 mM with the EC50eff of each CPE, listed as '—' = bupivacaine alone; for Duration of Sensory Block: median; for TTX block duration compared to TTX alone: 30 μM TTX with CPE at the concentration giving maximum percentage of block, p<0.001; for Maximum Block Duration (MBD, minutes): CPE co-injected with 30 μM TTX, 0.3 mL at sciatic nerve, median (25th-75th percentiles); for ECMBD: CPE concentration that caused the maximum prolongation of block from 30 μM TTX; for CPE Concentration: lowest CPE concentration needed to achieve the highest percentage of animals with block, with 30 μM TTX; for EC50: read-out: EC50eff
C2C12 myotubes = details: for % Survival: C2C12 myotubes, 2-hour exposure to each CPE at its EC50eff, head 'TTX 30 μm with:', mean ± SD, from FIG. 2
[3] = tested on: sciatic nerves and surrounding muscle
sciatic nerve [4] = assay: animal or person; details: Rattus norvegicus, read-out: EC50eff (mM)
sciatic nerve [5] = format: in vivo, Sprague-Dawley rats
[6] = 30 μM TTX with CPE, effective if latency >7 seconds at any point, listed as '—' = TTX alone
[7] = EC50eff of each enhancer without TTX, four days after injection, 4 animals per group

## CCCCN1CCCCC1C(=O)Nc1c(C)cccc1C (stereo not drawn) [Bupivacaine, bupivacaine, reference compound]
Sciatic nerve [1]
  successful blocks: > 99%
Sciatic nerve [2]
  % Animals with Effective Block: 42%
  Duration of Sensory Block: 0 min

## CCCCCCCCCCCC[N+](C)(C)C.[Br-] [DDAB, Dodecyl-trimethyl-ammonium Bromide]
Sciatic nerve [2]; 30 μM TTX in 32 mM DDAB
  resolution of nerve block: none of those rats' nerve blocks resolved
Sciatic nerve [2]
  TTX block duration compared to TTX alone: significantly improved TTX block duration
  % Animals with Effective Block: 0%
  Duration of Sensory Block: 0 min
  ECMBD: 8 mM
  CPE Concentration: 6 mM
Sciatic nerve [2]; [6]
  Highest % Animals with Effective Block: 100%
Sciatic nerve [2]; 32 mM DDAB alone, without TTX, the exception to 'CPE alone did not cause nerve blockade'
  nerve blockade by CPE alone: with one exception
Sciatic nerve [2]; listed as '—' = TTX alone
  Maximum Block Duration (MBD, minutes): 606 (452-788) minutes
Sciatic nerve [2]; rat, in vivo
  EC100 min: 1 mM
C2C12 myotubes
  % Survival: 5 ± 0.2%
[3]; 3% (97.3 mM) DDAB, two animals
  histology: tissue damage: deep and severe tissue damage, including ischemic necrosis, accompanied by severe and extensive inflammation
[3]; [7]
  histology: muscle and nerve injury: moderate to severe infiltration of macrophages and lymphocytes, atrophy and degeneration of muscle fibers, and fibrosis of the tissue
[3]; EC50eff of the enhancers together with 30 μm TTX
  histology: muscle and nerve injury: severe lymphocytic inflammatory infiltration of muscle with degenerative changes, regenerative changes, and fibrosis
Sciatic nerve [4]
  EC50: 6 mM

## CCCCCCCC[N+](C)(C)C.[Br-] [OTAB, Octyl-trimethyl-ammonium Bromide]
Sciatic nerve [2]
  TTX block duration compared to TTX alone: significantly improved TTX block duration
  % Animals with Effective Block: 0%
  Duration of Sensory Block: 0 min
  ECMBD: 119 mM
  CPE Concentration: 40 mM
Sciatic nerve [2]; [6]
  Highest % Animals with Effective Block: 100%
Sciatic nerve [2]; listed as '—' = TTX alone
  Maximum Block Duration (MBD, minutes): 353 (327-361) minutes
Sciatic nerve [2]; rat, in vivo
  EC100 min: 31 mM
C2C12 myotubes
  % Survival: 53 ± 2%
[3]; [7]
  histology: muscle and nerve injury: no significant muscle or nerve injury
Sciatic nerve [4]
  EC50: 30 mM

## Cc1cccc(C)c1NC(=O)C[N+](C)(C)C [QX-222, 2-((2,6-dimethylphenyl)amino)-N,N,N-trimethyl-2-oxoethanaminium]
Sciatic nerve [5]; 25 and 70 mM QX-314 or 70 and 100 mM QX-222 with 30, 40 or 50 μM TTX, FIGS. 5A and B
  thermal nociceptive and motor blockade of the combination with TTX: increased blockade significantly more than the mere cumulative value of the anesthetics alone

## CC[N+](CC)(CC)CC(=O)Nc1c(C)cccc1C [QX-314, N-(2,6)dimethylphenylcarbamoylmethyl triethylammonium bromide]
Sciatic nerve [5]; rat, in vivo
  thermal nociceptive and motor blockade of the combination with TTX: increased blockade significantly more than the mere cumulative value of the anesthetics alone

## CCCCCCCCCCCCOS(=O)(=O)[O-].[Na+] [SLS, Sodium Dodecyl Sulfate]
Sciatic nerve [2]
  TTX block duration compared to TTX alone: significantly improved TTX block duration
  % Animals with Effective Block: 50%
  Duration of Sensory Block: 22 min
  ECMBD: 35 mM
  CPE Concentration: 17 mM
Sciatic nerve [2]; [6]
  Highest % Animals with Effective Block: 88%
Sciatic nerve [2]; interpolated concentration of CPE that increased block duration of 30 μM TTX to 100 min
  EC100 min: 3 mM
C2C12 myotubes
  % Survival: 17 ± 11%
[3]; [7]
  histology: muscle and nerve injury: no significant muscle or nerve injury
Sciatic nerve [4]
  EC50: 4 mM

## CCCCCCCCOS(=O)(=O)[O-].[Na+] [SOS, Sodium Octyl Sulfate]
Sciatic nerve [2]
  TTX block duration compared to TTX alone: significantly improved TTX block duration
  % Animals with Effective Block: 25%
  Duration of Sensory Block: 0 min
  ECMBD: 86 mM
  CPE Concentration: 32 mM
Sciatic nerve [2]; [6]
  Highest % Animals with Effective Block: 100%
Sciatic nerve [2]; listed as '—' = TTX alone
  Maximum Block Duration (MBD, minutes): 521 (361-669) minutes
Sciatic nerve [2]; rat, in vivo
  EC100 min: 22 mM
C2C12 myotubes
  % Survival: 5 ± 3%
[3]; [7]
  histology: muscle and nerve injury: no significant muscle or nerve injury
Sciatic nerve [4]
  EC50: 32 mM

## NC1=N[C@H](O)[C@H]2[C@H]3O[C@]4(O)O[C@@H]([C@@H](O)[C@@]2(N1)[C@@H]4O)[C@]3(O)CO [TTX, tetrodotoxin, reference compound]
Sciatic nerve [2]; rat, in vivo
  % of animals with sensory blockade (effective nerve block): 29% and 29.2%
  Highest % Animals with Effective Block: 29%

## polysorbate 20 [TW 20]
Sciatic nerve [2]
  TTX block duration compared to TTX alone: significantly improved TTX block duration
  % Animals with Effective Block: 25%
  Duration of Sensory Block: 0 min
  ECMBD: 49 mM
  CPE Concentration: 4 mM
Sciatic nerve [2]; [6]
  Highest % Animals with Effective Block: 100%
Sciatic nerve [2]; listed as '—' = TTX alone
  Maximum Block Duration (MBD, minutes): 163 (129-206) minutes
Sciatic nerve [2]; rat, in vivo
  EC100 min: 4 mM
Sciatic nerve [2]; CPE concentration causing half-maximal increase in duration of block (half-MBD) of 30 μM TTX
  EC50: 3 mM
C2C12 myotubes
  % Survival: 94 ± 3%
C2C12 myotubes; CPE at EC50eff, 8-hour exposure / increasing duration of exposure (data not shown)
  C2C12 viability after longer exposure: remained at untreated-control levels
[3]; [7]
  histology: muscle and nerve injury: no significant muscle or nerve injury
[3]; Tween 20 at 24.4 and 81.4 mM
  histology: muscle and nerve injury: progressively worsening (mild to moderate) muscle atrophy and inflammation

## polysorbate 80 [TW 80]
Sciatic nerve [2]
  TTX block duration compared to TTX alone: significantly improved TTX block duration
  % Animals with Effective Block: 0%
  Duration of Sensory Block: 0 min
  ECMBD: 81 mM
  CPE Concentration: 81 mM
Sciatic nerve [2]; [6]
  Highest % Animals with Effective Block: 100%
Sciatic nerve [2]; listed as '—' = TTX alone
  Maximum Block Duration (MBD, minutes): 120 (111-143) minutes
Sciatic nerve [2]; rat, in vivo
  EC100 min: 40 mM
  EC50: 34 mM
C2C12 myotubes
  % Survival: 80 ± 8%
[3]; [7]
  histology: muscle and nerve injury: no significant muscle or nerve injury
